Test results taken from patent US9630947B2, “Therapeutic compounds and related methods of use” (OTSUKA PHARMACEUTICAL CO., LTD., priority 2009, dated 2017).
pIC50: −log10 of the molar value.

Biological target: T1, purified STEP46 enzyme (Homo sapiens, UniProt P54829)
T1 sequence (P54829 1-565): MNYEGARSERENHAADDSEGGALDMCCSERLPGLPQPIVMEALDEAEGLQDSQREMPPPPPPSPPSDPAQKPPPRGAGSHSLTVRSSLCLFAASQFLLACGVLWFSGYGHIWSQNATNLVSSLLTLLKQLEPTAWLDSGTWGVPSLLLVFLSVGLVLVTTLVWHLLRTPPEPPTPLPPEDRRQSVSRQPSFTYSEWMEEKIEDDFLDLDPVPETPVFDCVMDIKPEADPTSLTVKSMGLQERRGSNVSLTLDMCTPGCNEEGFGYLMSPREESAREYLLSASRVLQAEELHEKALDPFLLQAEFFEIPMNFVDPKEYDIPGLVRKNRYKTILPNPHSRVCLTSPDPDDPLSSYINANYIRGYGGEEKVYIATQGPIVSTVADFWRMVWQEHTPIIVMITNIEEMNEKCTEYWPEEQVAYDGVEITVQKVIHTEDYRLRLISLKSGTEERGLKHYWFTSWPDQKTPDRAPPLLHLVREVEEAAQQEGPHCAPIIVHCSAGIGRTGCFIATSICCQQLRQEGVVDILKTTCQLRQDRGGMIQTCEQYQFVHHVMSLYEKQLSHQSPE
Experiment: STEP46 biochemical assay (DiFMUP fluorescence phosphatase assay)
Conditions: DiFMUP 10 μM, read-out: STEP IC50
Method: STEP46 Biochemical Assays
Serial dilutions of compounds were performed in 100% DMSO and 1 uL of compounds were dispensed into 384-well black polystyrene plates (Corning, NY). Compounds were incubated with 24 uL of buffer containing 50 mM Hepes, 1 mM DTT, 0.02% Brij35, 1 ng/well purified STEP46 enzyme for 30 min at room temperature. The reaction was initiated by addition of 25 uL of DiFMUP (6, 8-difluoro-4-methylumbelliferyl phosphate) (InVitrogen, CA) with a final concentration of 10 μM and incubated at 27° C. for 90 min. Final DMSO concentration is 2%. Plates were read with florescence intensity at excitation/emission of 360/460 nm using a PheraStar plate reader (BMG Labtech, NC).
Data were expressed as percentage (%) inhibition of enzyme activity. 0% inhibition is defined as the RFUs (relative fluorescence units) in the absence of compounds and 100% inhibition is defined as RFUs in the absence of STEP46 enzyme. IC50 values of compounds with inhibitory activity against STEP46 were determined by GraphPad Prism (version 4.03) using four parameter logistic equation. Some compounds act as activators. For compounds showing STEP46 enzymatic activation, data are represented as percentage of inhibition but with negative values at three representative concentrations (25, 50 and 100 uM).

Compound: CNc1nc(-c2cccnc2)nc2cc(-c3ccc(OC)cc3)c(C)cc12 [Compound 1413]
- pIC50: 5.00 to 6.00

Compound: CN(C)C(=O)COc1ccc2nc(-c3cccnc3)nc(Oc3ccc(Cl)c(Cl)c3)c2c1 [Compound 847]
- pIC50: > 6.00

Compound: Fc1ccc(Nc2nc(-c3cccnc3)nc3ccc(-c4ccccc4Cl)cc23)cc1Cl [Compound 636]
- pIC50: < 5.00

Compound: COc1ccc2nc(-c3cccnc3)nc(Nc3nc(-c4cccc(OC(F)(F)F)c4)cs3)c2c1 [Compound 455]
- pIC50: 5.00 to 6.00

Compound: COc1ccc2nc(-c3cccnc3)nc(Nc3nc(-c4ccccc4F)cs3)c2c1 [Compound 439]
- pIC50: > 6.00

Compound: CNc1nc(-c2cccnc2)nc2c(C)c(-c3ccccc3F)ccc12 [Compound 1446]
- pIC50: 5.00 to 6.00

Compound: Clc1ccc(Nc2nc(-c3cnccn3)nc3ccccc23)cc1Cl [Compound 1218]
- pIC50: 5.00 to 6.00

Compound: COc1ccc2nc(-c3cnccn3)nc(Nc3cccc(C#N)c3)c2c1 [Compound 1193]
- pIC50: 5.00 to 6.00

Compound: CNc1nc(-c2cccnc2)nc2ccc(-c3cccc(OCCOC)c3)cc12 [Compound 1680, 6-(3-(2-methoxyethoxyl)phenyl)-N-methyl-2-(pyridin-3-yl)quinazolin-4-amine]
- pIC50: 5.00 to 6.00

Compound: COc1ncccc1-c1ccc2nc(-c3cccnc3)nc(Nc3ccc(F)c(Cl)c3)c2c1 [Compound 650]
- pIC50: > 6.00

Compound: Fc1ccc(Nc2nc(-c3cccnc3)nc3ccc(-c4ccc(Cl)cc4)cc23)cc1Cl [Compound 630]
- pIC50: 5.00 to 6.00

Compound: FC(F)Oc1cccc(Nc2nc(-c3ccnnc3)nc3cc(Cl)ccc23)c1 [Compound 1200]
- pIC50: 5.00 to 6.00

Compound: CNc1nc(-c2cccnc2)nc2c(C)c(-c3ccc(C#N)cc3)ccc12 [Compound 1452]
- pIC50: > 6.00

Compound: CNc1nc(-c2cccnc2)nc2ccc(-c3csc4ccccc34)cc12 [Compound 1339]
- pIC50: 5.00 to 6.00

Compound: Clc1ccc2nc(-c3cnccn3)nc(Nc3ccc(Cl)c(Cl)c3)c2c1 [Compound 1160]
- pIC50: 5.00 to 6.00

Compound: COc1ccc2nc(-c3cccnc3)nc(Nc3ccc4ncsc4c3)c2c1 [Compound 296]
- pIC50: 5.00 to 6.00

Compound: Fc1ccc(Nc2nc(-c3cccnc3)nc3ccc(-c4cncnc4)cc23)cc1Cl [Compound 652]
- pIC50: > 6.00

Compound: COc1ccc2nc(-c3cccnc3)nc(Nc3nc(-c4ccc(Br)cc4)cs3)c2c1 [Compound 415]
- pIC50: 5.00 to 6.00

Compound: Clc1cc(Cl)cc(Nc2nc(-c3ccnnc3)nc3cc(Cl)ccc23)c1 [Compound 1205]
- pIC50: 5.00 to 6.00

Compound: CNc1nc(-c2cccnc2)nc2cc(C)c(-c3cccc(OC)c3)cc12 [Compound 1419]
- pIC50: 5.00 to 6.00

Compound: CNc1nc(-c2cccnc2)nc2cc(-c3ccccc3C#N)ccc12 [Compound 1363]
- pIC50: 5.00 to 6.00

Compound: COc1cccc(-c2ccc3nc(-c4cccnc4)nc(Oc4ccc(Cl)c(Cl)c4)c3c2)c1 [Compound 391]
- pIC50: 5.00 to 6.00

Compound: CNc1nc(-c2cccnc2)nc2cc(-c3ccc(F)cc3)c(C)cc12 [Compound 1404]
- pIC50: < 5.00

Compound: Fc1ccc(Nc2nc(-c3cncnc3)nc3ccccc23)cc1Cl [Compound 1230]
- pIC50: 5.00 to 6.00

Compound: COc1ccc2nc(-c3cccnc3)nc(Nc3nc(-c4cccc(C#N)c4)cs3)c2c1 [Compound 453]
- pIC50: > 6.00

Compound: COc1ccc(-c2ccc3nc(-c4cccnc4)nc(Nc4ccc(F)c(Cl)c4)c3c2)c(OC)n1 [Compound 655]
- pIC50: > 6.00

Compound: Fc1ccc(Nc2nc(-c3ccnnc3)nc3ccccc23)cc1Cl [Compound 1216]
- pIC50: > 6.00

Compound: CNc1nc(-c2cccnc2)nc2c(C)c(-c3cccc(OC)c3)ccc12 [Compound 1456]
- pIC50: 5.00 to 6.00

Compound: COc1ccc2nc(-c3cccnc3)nc(Nc3nc(-c4cccc(Cl)c4)cs3)c2c1 [Compound 430]
- pIC50: > 6.00

Compound: COc1ccc2nc(-c3cccnc3)nc(Nc3ccccc3C(=O)NC(C)c3cccc(C(F)(F)F)c3)c2c1 (stereo not drawn) [Compound 888]
- pIC50: < 5.00

Compound: COc1ccc2nc(-c3ccnnc3)nc(Nc3cccc(OC(F)(F)F)c3)c2c1 [Compound 1188]
- pIC50: 5.00 to 6.00

Compound: Cc1cccc2c(Nc3cccc(C#N)c3)nc(-c3cnccn3)nc12 [Compound 1181]
- pIC50: 5.00 to 6.00

Compound: Fc1ccc(Nc2nc(-c3cccnc3)nc3ccc(-c4ccccc4F)cc23)cc1Cl [Compound 641]
- pIC50: > 6.00

Compound: CN(C)c1nc(-c2cccnc2)nc2ccc(-c3cccc(F)c3)cc12 [Compound 1324]
- pIC50: 5.00 to 6.00

Compound: COc1ccc2nc(-c3cccnc3)nc(Nc3nc(-c4cccc(C(F)(F)F)c4)cs3)c2c1 [Compound 449]
- pIC50: 5.00 to 6.00

Compound: COc1ccc2nc(-c3cccnc3)nc(Nc3ccccc3C(=O)NCc3cccs3)c2c1 [Compound 884]
- pIC50: < 5.00

Compound: FC(F)Oc1cccc(Nc2nc(-c3ccncn3)nc3ccccc23)c1 [Compound 1208]
- pIC50: < 5.00

Compound: COc1ccc2nc(-c3cccnc3)nc(Nc3cccc(Br)c3)c2c1 [Compound 425]
- pIC50: 5.00 to 6.00

Compound: CCOc1cccc(-c2ccc3nc(-c4cccnc4)nc(Nc4ccc(F)c(Cl)c4)c3c2)c1 [Compound 657]
- pIC50: > 6.00

Compound: COc1cncc(-c2ccc3nc(-c4cccnc4)nc(Nc4ccc(F)c(Cl)c4)c3c2)c1 [Compound 660]
- pIC50: > 6.00

Compound: COc1ccc2nc(-c3cccnc3)nc(Nc3c(F)cccc3Cl)c2c1 [Compound 934]
- pIC50: > 6.00

Compound: CN(C)c1ccc2nc(-c3ccnnc3)nc(Nc3ccc(F)c(Cl)c3)c2c1 [Compound 1152]
- pIC50: 5.00 to 6.00

Compound: COc1ccc2nc(-c3cccnc3)nc(Nc3ccc4oc(=O)[nH]c4c3)c2c1 [Compound 317]
- pIC50: 5.00 to 6.00

Compound: COc1ccc2nc(-c3cccnc3)nc(Nc3nc(-c4ccccc4C)cs3)c2c1 [Compound 444]
- pIC50: > 6.00

Compound: Fc1ccc(Nc2nc(-c3cccnc3)nc3ccc(-c4ccccc4)cc23)cc1Cl [Compound 631]
- pIC50: 5.00 to 6.00

Compound: Clc1cc(Cl)cc(Nc2nc(-c3cnccn3)nc3ccccc23)c1 [Compound 1222]
- pIC50: 5.00 to 6.00

Compound: Fc1ccc(Nc2nc(-c3cnccn3)nc3ccccc23)cc1F [Compound 1220]
- pIC50: < 5.00

Compound: Clc1cc(Cl)cc(Nc2nc(-c3ccnnc3)nc3ccccc23)c1 [Compound 1223]
- pIC50: > 6.00

Compound: Fc1ccc(Nc2nc(-c3cccnc3)nc3ccc(-c4ccc5c(c4)OCO5)cc23)cc1Cl [Compound 662]
- pIC50: > 6.00

Compound: Clc1cc(Cl)cc(Nc2nc(-c3cnccn3)nc3ccc(Cl)cc23)c1 [Compound 1161]
- pIC50: 5.00 to 6.00

Compound: CNc1nc(-c2cccnc2)nc2ccc(-c3cc(OC)cc(OC)c3)cc12 [Compound 1357]
- pIC50: 5.00 to 6.00

Compound: CNc1nc(-c2cccnc2)nc2ccc(-c3ccc(F)c(F)c3F)cc12 [Compound 1375]
- pIC50: 5.00 to 6.00

Compound: FC(F)Oc1cccc(Nc2nc(-c3ccnnc3)nc3ccccc23)c1 [Compound 1183]
- pIC50: 5.00 to 6.00

Compound: Cc1cccc2c(Nc3cc(Cl)cc(Cl)c3)nc(-c3cnccn3)nc12 [Compound 1180]
- pIC50: 5.00 to 6.00

Compound: CNc1nc(-c2cccnc2)nc2c(C)cc(-c3ccc(OC)cc3)cc12 [Compound 1282]
- pIC50: 5.00 to 6.00

Compound: CNC(=O)c1ccc(-c2ccc3nc(-c4cccnc4)nc(Nc4ccc(F)c(Cl)c4)c3c2)cc1 [Compound 667]
- pIC50: > 6.00

Compound: CNc1nc(-c2ccnnc2)nc2ccc(-c3ccc(F)cc3F)cc12 [Compound 1238]
- pIC50: 5.00 to 6.00

Compound: Fc1ccc(Nc2nc(-c3cccnc3)nc3ccc(-c4ccncc4)cc23)cc1Cl [Compound 651]
- pIC50: > 6.00

Compound: Fc1ccc(Nc2nc(-c3cnccn3)nc3cc(Cl)ccc23)cc1F [Compound 1142]
- pIC50: 5.00 to 6.00

Compound: CNc1nc(-c2cccnc2)nc2ccc(-c3cccc(F)c3F)c(C)c12 [Compound 1285]
- pIC50: < 5.00

Compound: CNc1nc(-c2cccnc2)nc2c(C)cc(-c3ccccc3OC)cc12 [Compound 1283]
- pIC50: < 5.00

Compound: Fc1ccccc1-c1ccc2c(NCc3ccccn3)nc(-c3cccnc3)nc2c1 [Compound 1425]
- pIC50: 5.00 to 6.00

Compound: CCOc1ccc2nc(-c3cccnc3)nc(Nc3ccc4c(c3)NC(=O)CO4)c2c1 [Compound 336]
- pIC50: > 6.00

Compound: COc1ccc2nc(-c3cccnc3)nc(Nc3cccc4c3OC(F)(F)O4)c2c1 [Compound 339]
- pIC50: 5.00 to 6.00

Compound: CCOc1ccc2nc(-c3cccnc3)nc(Nc3ccc4c(c3)NC(=O)CC4)c2c1 [Compound 337]
- pIC50: > 6.00

Compound: O=C(c1ccc(-c2ccc3nc(-c4cccnc4)nc(Nc4ccc(F)c(Cl)c4)c3c2)cc1)N1CCCCC1 [Compound 665]
- pIC50: 5.00 to 6.00

Compound: Cc1ccc(-c2ccc3c(Nc4ccc(F)c(Cl)c4)nc(-c4cccnc4)nc3c2)cc1 [Compound 695]
- pIC50: > 6.00

Compound: CNc1nc(-c2cccnc2)nc2cc(C)c(-c3ccc(F)cc3)cc12 [Compound 1414]
- pIC50: 5.00 to 6.00

Compound: COc1ncc(-c2ccc3nc(-c4cccnc4)nc(Nc4ccc(F)c(Cl)c4)c3c2)c(OC)n1 [Compound 653]
- pIC50: > 6.00
